Test results: PubChem BioAssay AID180 (DTP/NCI, 2004)
Values joined by “and” are separate entries in the source; they are usually repeats but may differ in a detail not shown here. Equal values may be shown once.

Test system: BDF1 mice, Adenocarcinoma 755 s.c., tumor weight T/C
Assay: NCI In Vivo Anticancer Drug Screen. Data for tumor model Adenocarcinoma 755 (subcutaneous) in B6D2F1 (BDF1) mice
Conditions: endpoint: mean tumor weight, higher = larger tumour
Procedure, shortened: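 Values express treated (T) relative to vehicle-dosed control (C) animals, based on survival or tumour size measured after compound treatment of mice bearing a transplanted tumour.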

[1] = dose: 25.0 mg/kg/injection, schedule: Q01DX011 (sc), vehicle: steriod suspending solution
[2] = dose: 25.0 mg/kg/injection, schedule: Q01DX011 (ip), vehicle: methylcellulose (MC)
[3] = dose: 50.0 mg/kg/injection, schedule: Q01DX011 (ip), vehicle: methylcellulose (MC)

CC1(C)O[C@@H]2C[C@H]3[C@@H]4CCC5=CC(=O)CC[C@]5(C)[C@@]4(F)[C@@H](O)C[C@]3(C)[C@]2(C(=O)CO)O1
T/C (dose: 0.3 mg/kg/injection, schedule: Q01DX011 (sc), vehicle: steriod suspending solution): 60 % of control
T/C (dose: 0.7 mg/kg/injection, schedule: Q01DX011 (sc), vehicle: steriod suspending solution): 42 % of control
T/C (dose: 0.75 mg/kg/injection, schedule: Q01DX011 (sc), vehicle: steriod suspending solution): 82 % of control
T/C (dose: 6.0 mg/kg/injection, schedule: Q01DX011 (sc), vehicle: steriod suspending solution): 36 % of control
T/C (dose: 6.25 mg/kg/injection, schedule: Q01DX011 (sc), vehicle: steriod suspending solution): 41 % of control
T/C (dose: 12.0 mg/kg/injection, schedule: Q01DX011 (sc), vehicle: steriod suspending solution): 16 % of control
T/C (dose: 12.5 mg/kg/injection, schedule: Q01DX011 (sc), vehicle: steriod suspending solution): 31 % of control
T/C (dose: 24.0 mg/kg/injection, schedule: Q01DX011 (sc), vehicle: steriod suspending solution): 8 % of control (2×) and 14 % of control
T/C [1]: 20 % of control
T/C (dose: 48.0 mg/kg/injection, schedule: Q01DX011 (sc), vehicle: steriod suspending solution): 8 % of control

CC(Cc1ccccc1)NC(=O)CCl (stereo not drawn)
T/C (dose: 37.0 mg/kg/injection, schedule: Q01DX011 (im), vehicle: other): 68 % of control
T/C (dose: 37.0 mg/kg/injection, schedule: Q01DX011 (oral), vehicle: other): 71 % of control
T/C (dose: 37.0 mg/kg/injection, schedule: Q01DX011 (sc), vehicle: other): 118 % of control
T/C (dose: 50.0 mg/kg/injection, schedule: Q01DX011 (im), vehicle: other): 68 % of control
T/C (dose: 50.0 mg/kg/injection, schedule: Q01DX011 (oral), vehicle: other): 106 % of control
T/C (dose: 50.0 mg/kg/injection, schedule: Q01DX011 (sc), vehicle: other): 73 % of control
T/C (dose: 75.0 mg/kg/injection, schedule: Q01DX011 (im), vehicle: other): 48 % of control
T/C (dose: 75.0 mg/kg/injection, schedule: Q01DX011 (oral), vehicle: other): 87 % of control
T/C (dose: 75.0 mg/kg/injection, schedule: Q01DX011 (sc), vehicle: other): 63 % of control
T/C (dose: 112.0 mg/kg/injection, schedule: Q01DX011 (oral), vehicle: other): 82 % of control

Nc1nc2nc(/N=N/SCCO)[nH]c2c(=O)[nH]1
T/C [2]: 65 % of control
T/C [3]: 39 % of control

Cc1nc2nc(N)nc(N)c2nc1C
T/C (dose: 12.62 mg/kg/injection, schedule: Q01DX011 (ip), vehicle: carboxymethylcellulose (CMC)): 67 % of control
T/C (dose: 15.63 mg/kg/injection, schedule: Q01DX011 (ip), vehicle: carboxymethylcellulose (CMC)): 50 % of control
T/C (dose: 62.5 mg/kg/injection, schedule: Q01DX011 (ip), vehicle: carboxymethylcellulose (CMC)): 122 % of control and 123 % of control
T/C (dose: 125.0 mg/kg/injection, schedule: Q01DX011 (ip), vehicle: carboxymethylcellulose (CMC)): 58 % of control

N#CCCn1cnc2c(Cl)ncnc21
T/C (dose: 50.0 mg/kg/injection, schedule: Q01DX011 (ip), vehicle: other): 85 % of control
T/C (dose: 100.0 mg/kg/injection, schedule: Q01DX011 (ip), vehicle: other): 157 % of control
T/C (dose: 400.0 mg/kg/injection, schedule: Q01DX011 (ip), vehicle: other): 98 % of control
T/C (dose: 600.0 mg/kg/injection, schedule: Q01DX011 (ip), vehicle: other): 63 % of control
T/C (dose: 800.0 mg/kg/injection, schedule: Q01DX011 (ip), vehicle: other): 94 % of control

C=CCC1(CC)C(=O)NC(=O)NC1=O
T/C (dose: 10.0 mg/kg/injection, schedule: Q01DX011 (ip), vehicle: carboxymethylcellulose (CMC)): 83 % of control
T/C (dose: 22.0 mg/kg/injection, schedule: Q01DX011 (ip), vehicle: methylcellulose (MC)): 53 % of control
T/C [2]: 112 % of control
T/C (dose: 42.0 mg/kg/injection, schedule: Q01DX011 (ip), vehicle: methylcellulose (MC)): 59 % of control
T/C [3]: 94 % of control and 79 % of control
T/C (dose: 85.0 mg/kg/injection, schedule: Q01DX011 (ip), vehicle: methylcellulose (MC)): 23 % of control
T/C (dose: 100.0 mg/kg/injection, schedule: Q01DX011 (ip), vehicle: methylcellulose (MC)): 61 % of control and 66 % of control
T/C (dose: 170.0 mg/kg/injection, schedule: Q01DX011 (ip), vehicle: carboxymethylcellulose (CMC)): 49 % of control
T/C (dose: 170.0 mg/kg/injection, schedule: Q01DX011 (ip), vehicle: methylcellulose (MC)): 4 % of control
T/C (dose: 200.0 mg/kg/injection, schedule: Q01DX011 (ip), vehicle: carboxymethylcellulose (CMC)): 83 % of control
T/C (dose: 200.0 mg/kg/injection, schedule: Q01DX011 (ip), vehicle: methylcellulose (MC)): 27 % of control and 42 % of control

CCOC(=O)c1cnc(SCc2ccccc2Cl)nc1N1CC1
T/C (dose: 8.0 mg/kg/injection, schedule: Q01DX011 (ip), vehicle: carboxymethylcellulose (CMC)): 54 % of control
T/C (dose: 8.0 mg/kg/injection, schedule: Q01DX011 (ip), vehicle: other): 110 % of control
T/C (dose: 16.0 mg/kg/injection, schedule: Q01DX011 (ip), vehicle: carboxymethylcellulose (CMC)): 75 % of control
T/C (dose: 16.0 mg/kg/injection, schedule: Q01DX011 (ip), vehicle: other): 70 % of control
T/C (dose: 28.0 mg/kg/injection, schedule: Q01DX011 (ip), vehicle: carboxymethylcellulose (CMC)): 29 % of control
T/C (dose: 28.0 mg/kg/injection, schedule: Q01DX011 (ip), vehicle: other): 62 % of control
T/C (dose: 56.0 mg/kg/injection, schedule: Q01DX011 (ip), vehicle: carboxymethylcellulose (CMC)): 16 % of control
T/C (dose: 56.0 mg/kg/injection, schedule: Q01DX011 (ip), vehicle: other): 22 % of control

C[C@H]1C[C@@H]2[C@H]([C@@H](O)C[C@@]3(C)[C@H]2CC[C@]3(O)C(=O)CF)[C@@]2(C)C=CC(=O)C=C12
T/C (dose: 2.5 mg/kg/injection, schedule: Q01DX011 (sc), vehicle: steriod suspending solution): 82 % of control
T/C (dose: 5.0 mg/kg/injection, schedule: Q01DX011 (sc), vehicle: steriod suspending solution): 57 % of control
T/C (dose: 10.0 mg/kg/injection, schedule: Q01DX011 (sc), vehicle: steriod suspending solution): 48 % of control
T/C (dose: 21.0 mg/kg/injection, schedule: Q01DX011 (sc), vehicle: steriod suspending solution): 64 % of control
T/C [1]: 91 % of control
T/C (dose: 42.0 mg/kg/injection, schedule: Q01DX011 (sc), vehicle: saline): 39 % of control
T/C (dose: 42.0 mg/kg/injection, schedule: Q01DX011 (sc), vehicle: steriod suspending solution): 12 % of control and 25 % of control (2×)
T/C (dose: 50.0 mg/kg/injection, schedule: Q01DX011 (sc), vehicle: steriod suspending solution): 59 % of control
T/C (dose: 84.0 mg/kg/injection, schedule: Q01DX011 (sc), vehicle: saline): 61 % of control
T/C (dose: 84.0 mg/kg/injection, schedule: Q01DX011 (sc), vehicle: steriod suspending solution): 9 % of control
T/C (dose: 100.0 mg/kg/injection, schedule: Q01DX011 (sc), vehicle: steriod suspending solution): 55 % of control
T/C (dose: 168.0 mg/kg/injection, schedule: Q01DX011 (sc), vehicle: saline): 19 % of control
T/C (dose: 168.0 mg/kg/injection, schedule: Q01DX011 (sc), vehicle: steriod suspending solution): 1 % of control
T/C (dose: 200.0 mg/kg/injection, schedule: Q01DX011 (sc), vehicle: steriod suspending solution): 57 % of control
T/C (dose: 336.0 mg/kg/injection, schedule: Q01DX011 (sc), vehicle: saline): 19 % of control
T/C (dose: 400.0 mg/kg/injection, schedule: Q01DX011 (sc), vehicle: steriod suspending solution): 23 % of control
T/C (dose: 500.0 mg/kg/injection, schedule: Q01DX011 (sc), vehicle: steriod suspending solution): 39 % of control
T/C (dose: 600.0 mg/kg/injection, schedule: Q01DX011 (sc), vehicle: steriod suspending solution): 37 % of control
T/C (dose: 700.0 mg/kg/injection, schedule: Q01DX011 (sc), vehicle: steriod suspending solution): 17 % of control

CN(C)N=Nc1ccc(CCC(=O)NN)cc1
T/C (dose: 10.0 mg/kg/injection, schedule: Q01DX011 (ip), vehicle: saline): 63 % of control
T/C (dose: 15.0 mg/kg/injection, schedule: Q01DX011 (ip), vehicle: saline): 56 % of control
T/C (dose: 20.0 mg/kg/injection, schedule: Q01DX011 (ip), vehicle: saline): 44 % of control
T/C (dose: 31.0 mg/kg/injection, schedule: Q01DX011 (ip), vehicle: saline): 40 % of control
